Experimental findings from patent US20200163938A1, “PHARMACEUTICAL COMPOSITION COMPRISING IRON CHELATOR EXHIBITING ANTITUMOR ACTIVITY, ANTIBACTERIAL ACTIVITY AND/OR ANTIVIRUS ACTIVITY, AND HAVING REDUCED SIDE EFFECTS” (priority 2017, published 2020) are described below.

The test system of assay [1] is HSC-2 cells. Briefly: Apoptosis induction, TUNEL staining. The assay is classed as cell-based, human. As to conditions: 100 μg/mL, 48 hours, FIG. 11A. Here is the method:
(§1) Furthermore, the apoptosis-inducing effects of the chelating agents of test groups 6 and 10 on tumors were confirmed. First, 100 μg/mL of the chelating agent of test group 6 or 50 μg/mL of the chelating agent of test group 10 was added to HSC-2 cells in a culture solution. After 48 hours of reaction, TUNEL Assay was carried out. Specifically, apoptosis induction was evaluated by the TUNEL staining method using a MK500 in situ Apoptosis Detection Kit (Takara Bio Inc.).

Assay [2] has as its system A549 cells. Briefly: Apoptosis induction, TUNEL staining. It counts as cell-based, human. As to conditions: 100 μg/mL, 48 hours, FIG. 11C. As for the experimental part:
as §1
Further, the apoptosis-inducing effects of the chelating agent of test group 6 or 10 on A549 cells were confirmed. 100 μg/mL of the chelating agent of test group 6 was added and 50 μg/mL of the chelating agent of test group 10 was added to the cells. After 48 hours of reaction, TUNEL staining was carried out similarly to the above.

Assay [3] concerns human oral squamous cell carcinoma HSC-2. Briefly: Antitumor effects, cell viability (XTT method). The assay is classed as cell-based. Conditions: FIG. 10. As for the experimental part:
(§2) The antitumor effects of the chelating agents of test groups 1 to 10 on each of human lung cancer cell line A549, human liver cancer cell line PLC, and human colon adenocarcinoma cell line HCT116 were confirmed. A549 cells or PLC cells were seeded at 3000 cells/well, and HCT116 cells were seeded at 6000 cells/well. After 24 hours, the fetal bovine serum (FBS) concentration was changed from 10% to 1%, each compound of the test groups 1 to 10 was introduced into medium. Cell viability was confirmed after 48 hours by the Trypan blue method, or, cell viability was confirmed after 48 hours by performing medium exchange and then after 24 hours by performing the XTT method. Deferoxamine mesylate (Desferal (Trademark)) was used as a positive control. Results are as depicted in FIGS. 1A, 1B, 2 and 3.
(§3) Moreover, similarly to the above experiment on antitumor effects, the antitumor effects of the chelating agent of test group 6 or 10 on each of human breast cancer cell line MCF-7 and human oral squamous cell carcinoma HSC-2 were confirmed.

For assay [4], the system named is human breast cancer cell line MCF-7. Briefly: Antitumor effects, cell viability (XTT method). The assay is classed as cell-based. Conditions: FIG. 9. As for the experimental part: as §2, §3
Background: Tetrazolium assays rely on reduction of a dye to a coloured formazan, in cell work by metabolically active cells.

Consider `Cl.OCC1OC(O)C(NCc2ccc(O)c(O)c2O)C(O)C1O` (stereo not shown) [Test group 6], for which the “apoptosis-inducing effects (TUNEL staining)” value in assay [1] is given as “green-stained cells indicating apoptosis were confirmed”; in assay [2], “green-stained cells (FITC positive cells) indicating apoptosis were confirmed”. Also, the “antitumor effects on HSC-2 (cell viability)” value in assay [3] was “exhibit antitumor effects”. The “antitumor effects on MCF-7 (cell viability)” value in assay [4] is given as “exhibit antitumor effects”.
